Results as given in the NIST ThermoML archive (doi:10.1021/acs.jced.9b00752).
± gives the expanded uncertainty stated by the source.

Assay: mn = molality of the nth substance listed, in mol/kg
Conditions: 100 kPa, Liquid, Vibrating tube method

O=C(O)[C@@H]1CCCN1 [L-proline] + O
mass density [kg/m3]
Conditions	278.65 K	279.15 K	279.65 K	280.15 K	280.65 K	281.15 K	281.65 K	282.15 K	282.65 K	283.15 K
m1 = 0.0132	1000.41 ± 0.11	1000.39 ± 0.11	1000.38 ± 0.11	1000.35 ± 0.11	1000.33 ± 0.11	1000.3 ± 0.11	1000.27 ± 0.11	1000.23 ± 0.11	1000.19 ± 0.11	1000.15 ± 0.11
m1 = 0.0326	1001.08 ± 0.11	1001.06 ± 0.11	1001.04 ± 0.11	1001.02 ± 0.11	1000.99 ± 0.11	1000.97 ± 0.11	1000.93 ± 0.11	1000.89 ± 0.11	1000.85 ± 0.11	1000.81 ± 0.11
m1 = 0.0542	1001.81 ± 0.11	1001.79 ± 0.11	1001.77 ± 0.11	1001.75 ± 0.11	1001.72 ± 0.11	1001.69 ± 0.11	1001.66 ± 0.11	1001.62 ± 0.11	1001.57 ± 0.11	1001.53 ± 0.11
m1 = 0.0692	1002.32 ± 0.11	1002.3 ± 0.11	1002.27 ± 0.11	1002.25 ± 0.11	1002.22 ± 0.11	1002.19 ± 0.11	1002.15 ± 0.11	1002.12 ± 0.11	1002.07 ± 0.11	1002.03 ± 0.11
m1 = 0.0808	1002.71 ± 0.11	1002.7 ± 0.11	1002.67 ± 0.11	1002.64 ± 0.11	1002.61 ± 0.11	1002.59 ± 0.11	1002.55 ± 0.11	1002.5 ± 0.11	1002.46 ± 0.11	1002.41 ± 0.11
m1 = 0.1014	1003.42 ± 0.11	1003.4 ± 0.11	1003.37 ± 0.11	1003.35 ± 0.11	1003.31 ± 0.11	1003.28 ± 0.11	1003.25 ± 0.11	1003.2 ± 0.11	1003.16 ± 0.11	1003.11 ± 0.11
m1 = 0.1196	1004.08 ± 0.11	1004.06 ± 0.11	1004.03 ± 0.11	1004 ± 0.11	1003.97 ± 0.11	1003.94 ± 0.11	1003.9 ± 0.11	1003.86 ± 0.11	1003.81 ± 0.11	1003.76 ± 0.11
m1 = 0.1326	1004.49 ± 0.11	1004.47 ± 0.11	1004.44 ± 0.11	1004.41 ± 0.11	1004.38 ± 0.11	1004.35 ± 0.11	1004.31 ± 0.11	1004.26 ± 0.11	1004.21 ± 0.11	1004.16 ± 0.11
m1 = 0.1555	1005.24 ± 0.15	1005.21 ± 0.15	1005.19 ± 0.15	1005.15 ± 0.15	1005.12 ± 0.15	1005.09 ± 0.15	1005.04 ± 0.15	1005 ± 0.15	1004.95 ± 0.15	1004.9 ± 0.15
m1 = 0.1568	1005.37 ± 0.15	1005.35 ± 0.15	1005.32 ± 0.15	1005.29 ± 0.15	1005.25 ± 0.15	1005.22 ± 0.14	1005.18 ± 0.15	1005.13 ± 0.15	1005.08 ± 0.15	1005.03 ± 0.15
m1 = 0.1835	1006.18 ± 0.11	1006.15 ± 0.11	1006.12 ± 0.11	1006.09 ± 0.11	1006.05 ± 0.11	1006.02 ± 0.11	1005.98 ± 0.11	1005.93 ± 0.11	1005.88 ± 0.11	1005.83 ± 0.11
m1 = 0.2076	1006.97 ± 0.11	1006.94 ± 0.11	1006.91 ± 0.11	1006.87 ± 0.11	1006.83 ± 0.11	1006.8 ± 0.11	1006.75 ± 0.11	1006.7 ± 0.11	1006.65 ± 0.11	1006.6 ± 0.11
m1 = 0.2212	1007.63 ± 0.12	1007.6 ± 0.12	1007.57 ± 0.12	1007.53 ± 0.12	1007.5 ± 0.12	1007.46 ± 0.12	1007.41 ± 0.12	1007.36 ± 0.12	1007.31 ± 0.12	1007.26 ± 0.12
